Test results reported in patent US20260070945A1, “MACROCYCLIC IMMUNOMODULATORS” (Bristol-Myers Squibb Company, priority 2022, published 2026).
*1 amine or outer side, *2 acyl side, *3 side chain or, on linkers, in order; H or OH if unused. Where a SMILES comes first, the peptide text is derived from it. Bridges are numbered along the chain shown (N, C = ends). [ ]: non-standard residue; d: D form. The star is where a group is joined. ξ: configuration not given here. Phe(3-CF3) = N[C@@H](Cc1cccc(C(F)(F)F)c1)C(=O)O; Phe(4-CF3) = N[C@@H](Cc1ccc(C(F)(F)F)cc1)C(=O)O; Phe(4-COOH) = N[C@@H](Cc1ccc(C(=O)O)cc1)C(=O)O; Bip = N[C@@H](Cc1ccc(-c2ccccc2)cc1)C(=O)O; NH(CH2)14COOH = O=C(O)CCCCCCCCCCCCCCN*; Phe(3-Me) = Cc1cccc(C[C@H](N)C(=O)O)c1; γGlu = O=C(O)[C@H](CCC(=O)[*:2])N[*:1]; Abu(3S-NH2) = C[C@H](N)[C@H](N)C(=O)O; βAsp = O=C(O)[C@H](CC(=O)[*:2])N[*:1]; NH(CH2)12COOH = O=C(O)CCCCCCCCCCCCN*; Val(3-OH) = CC(C)(O)[C@H](N)C(=O)O; 4Pal = N[C@@H](Cc1ccncc1)C(=O)O; 2Thi = N[C@@H](Cc1cccs1)C(=O)O; 3Thi = N[C@@H](Cc1ccsc1)C(=O)O; Cha = N[C@@H](CC1CCCCC1)C(=O)O; Cit = NC(=O)NCCC[C@H](N)C(=O)O; Ile(3ξ) = CCC(C)[C@H](N)C(=O)O; Thr(3ξ) = CC(O)[C@H](N)C(=O)O; Carboxymethyl = O=C(O)C*; NMeA = CN[C@@H](C)C(=O)O; Orn = NCCC[C@H](N)C(=O)O; Aun = NCCCCCCCCCCC(=O)O; Dab = NCC[C@H](N)C(=O)O; Dap = NC[C@H](N)C(=O)O; AEEA = NCCOCCOCC(=O)O; CF3 = FC(F)(F)*

Molecular target: T1, PD-1/PD-L1 interaction (PE-labeled human PD-L1-Ig binding to Jurkat cell line over-expressing human PD-1) (Homo sapiens, UniProt Q15116)
T1 construct: expressed in transfected cells; host or cells: Jurkat
Test: Jurkat-PD-1 Cell Binding High-Content Screening Assay (CBA)
Conditions: Jurkat-hPD-1 cells, PE-labeled PD-L1-Ig 20 nM final; read-out: Jurkat HPD1 PDL1 IC50
Procedure, shortened: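 Read-out: high-content imaging of cell-bound PE fluorescence, with Hoechst 33342 nuclear counterstain after paraformaldehyde fixation. Before labeled ligand (20 nM final, 1 h) was added, compound sat on the cells for 2 h at 37 °C in DMEM/10% FCS.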

T1 sequence (Q15116 25-288): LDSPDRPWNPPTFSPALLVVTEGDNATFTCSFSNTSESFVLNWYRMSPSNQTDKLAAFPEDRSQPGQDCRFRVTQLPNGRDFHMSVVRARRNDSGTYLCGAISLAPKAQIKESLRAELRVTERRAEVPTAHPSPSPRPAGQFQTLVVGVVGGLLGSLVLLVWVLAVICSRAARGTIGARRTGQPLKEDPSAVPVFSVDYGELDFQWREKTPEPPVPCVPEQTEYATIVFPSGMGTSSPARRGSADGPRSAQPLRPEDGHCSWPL

Compound	IC50 [nM]
CC(C)C[C@@H]1NC(=O)[C@H](Cc2c[nH]c3ccccc23)NC(=O)[C@H](CC(=O)O)NC(=O)[C@H](Cc2ccc(OCC(=O)O)cc2)NC(=O)[C@H](C(C)O)NC(=O)CSC[C@@H](C(=O)NCCOCCOCC(=O)NCCCCCCCCCCC(=O)O)NC(=O)[C@H](CO)NC(=O)[C@H](C(C)(C)O)NC(=O)[C@H](CC2CCCCC2)NC(=O)[C@H](CCC(=O)O)NC(=O)[C@@H](CC(C)C)NC(=O)[C@H](C)N(C)C(=O)[C@H](C(C)C)NC(=O)[C@H](Cc2ccc(-c3ccccc3)cc2)NC1=O (stereo partly drawn) [Example 2448] ({CH2CO}-[Thr(3ξ)]Y(Carboxymethyl)DWL[Bip]V[NMeA][dL]E[Cha][Val(3-OH)]SC[AEEA][Aun]-OH; thioether N-14)	128
CC(C)C[C@H]1NC(=O)[C@H](C)N(C)C(=O)[C@H](CCCNC(N)=O)NC(=O)[C@H](Cc2ccc(-c3ccccc3)cc2)NC(=O)[C@H](Cc2ccc(C(=O)O)cc2)NC(=O)[C@H](Cc2cccc(C(F)(F)F)c2)NC(=O)[C@H](CC(=O)O)NC(=O)[C@H](Cc2ccc(OCC(=O)O)cc2)NC(=O)[C@H]([C@H](C)N)NC(=O)CSC[C@@H](C(=O)N[C@@H](CCN)C(=O)NCCOCCOCC(=O)N[C@@H](CCC(=O)NCCOCCOCC(=O)NCCCCCCCCCCCCC(=O)O)C(=O)O)NC(=O)[C@H](CO)NC(=O)[C@H](C(C)(C)O)NC(=O)[C@H](CC2CCCCC2)NC(=O)[C@H](CCN)NC1=O [Example 1205] ({CH2CO}-[Abu(3S-NH2)]Y(Carboxymethyl)D[Phe(3-CF3)][Phe(4-COOH)][Bip][Cit][NMeA][dL][Dab][Cha][Val(3-OH)]SC[Dab][AEEA][γGlu][AEEA]-{NH(CH2)12COOH}; thioether N-14)	24.7
Cc1cccc(C[C@@H]2NC(=O)[C@H](CC(=O)O)NC(=O)[C@H](Cc3ccc(OCC(=O)O)cc3)NC(=O)[C@H](CN)NC(=O)CSC[C@@H](C(=O)N[C@@H](CCN)C(=O)NCCCCCCCCCCC(=O)O)NC(=O)[C@H](CCCN)NC(=O)[C@H](C(C)C)NC(=O)[C@H](CC3CCCCC3)NC(=O)[C@H](CCN)NC(=O)[C@@H](CC(C)C)NC(=O)[C@H](C)N(C)C(=O)[C@H](Cc3ccc(O)cc3)NC(=O)[C@H](Cc3ccc(-c4ccccc4)cc3)NC(=O)[C@H](C(C)C)NC2=O)c1 [Example 1315] ({CH2CO}-[Dap]Y(Carboxymethyl)D[Phe(3-Me)]V[Bip]Y[NMeA][dL][Dab][Cha]V[Orn]C[Dab][Aun]-OH; thioether N-14)	9.9
CC(C)C[C@@H]1NC(=O)[C@H](Cc2c[nH]c3ccccc23)NC(=O)[C@H](CC(=O)O)NC(=O)[C@H](Cc2ccncc2)NC(=O)[C@H](Cc2ccc(OCC(=O)O)cc2)NC(=O)CSC[C@@H](C(=O)N[C@@H](CCCNC(=N)N)C(=O)NCCCCCCCCCCC(=O)O)NC(=O)[C@H](CO)NC(=O)[C@H](C(C)C)NC(=O)[C@H](CC2CCCCC2)NC(=O)[C@H](CCN)NC(=O)[C@@H](CC(C)C)NC(=O)[C@H](C)N(C)C(=O)[C@H](C(C)C)NC(=O)[C@H](Cc2ccc(-c3ccccc3)cc2)NC1=O [Example 1086] ({CH2CO}-Y(Carboxymethyl)[4Pal]DWL[Bip]V[NMeA][dL][Dab][Cha]VSCR[Aun]-OH; thioether N-14)	31

Further lines, results first:

IC50 [nM]	Compound
11.6	Cc1cccc(C[C@@H]2NC(=O)[C@H](CC(=O)O)NC(=O)[C@H](Cc3ccc(C(=O)O)cc3)NC(=O)[C@H](CCN)NC(=O)CSC[C@@H](C(=O)N[C@@H](CCN)C(=O)NCCCCCCCCCCC(=O)O)NC(=O)[C@H](CO)NC(=O)[C@H](C(C)(C)O)NC(=O)[C@H](CC3CCCCC3)NC(=O)[C@H](CCN)NC(=O)[C@@H](CC(C)C)NC(=O)[C@H](C)N(C)C(=O)[C@H](Cc3ccc(OCC(=O)O)cc3)NC(=O)[C@H](Cc3ccc(-c4ccccc4)cc3)NC(=O)[C@H](Cc3cccs3)NC2=O)c1 [Example 1294] ({CH2CO}-[Dab][Phe(4-COOH)]D[Phe(3-Me)][2Thi][Bip]Y(Carboxymethyl)[NMeA][dL][Dab][Cha][Val(3-OH)]SC[Dab][Aun]-OH; thioether N-14)
183	Cc1cccc(C[C@@H]2NC(=O)[C@H](CC(=O)O)NC(=O)[C@H](Cc3ccc(C(=O)O)cc3)NC(=O)[C@H](Cc3ccc(OCC(=O)O)cc3)NC(=O)CSC[C@@H](C(=O)NCCCCCCCCCCC(=O)O)NC(=O)[C@H](CCC(=O)O)NC(=O)[C@H](C(C)C)NC(=O)[C@H](CC3CCCCC3)NC(=O)[C@H](CCN)NC(=O)[C@@H](CC(C)C)NC(=O)[C@H](C)N(C)C(=O)[C@H](Cc3ccc(O)cc3)NC(=O)[C@H](Cc3ccc(-c4ccccc4)cc3)NC(=O)[C@H](CC(C)C)NC2=O)c1 [Example 2254] ({CH2CO}-Y(Carboxymethyl)[Phe(4-COOH)]D[Phe(3-Me)]L[Bip]Y[NMeA][dL][Dab][Cha]VEC[Aun]-OH; thioether N-14)
27.9	Cc1cccc(C[C@@H]2NC(=O)[C@H](CC(=O)O)NC(=O)[C@H](Cc3ccc(OCC(=O)O)cc3)NC(=O)[C@H](CCCNC(=N)N)NC(=O)CSC[C@@H](C(=O)N[C@@H](CCCCN)C(=O)NCCCCCCCCCCC(=O)O)NC(=O)[C@H]([C@@H](C)O)NC(=O)[C@H](C(C)C)NC(=O)[C@H](CC3CCCCC3)NC(=O)[C@H](CCN)NC(=O)[C@@H](CC(C)C)NC(=O)[C@H](C)N(C)C(=O)[C@H](Cc3ccc(OCC(=O)O)cc3)NC(=O)[C@H](Cc3ccc(-c4ccccc4)cc3)NC(=O)[C@H](Cc3ccc(OCC(=O)O)cc3)NC2=O)c1 [Example 1224] ({CH2CO}-RY(Carboxymethyl)D[Phe(3-Me)]Y(Carboxymethyl)[Bip]Y(Carboxymethyl)[NMeA][dL][Dab][Cha]VTCK[Aun]-OH; thioether N-14)
10.4	CCC(C)[C@@H]1NC(=O)[C@H](Cc2ccc(-c3ccccc3)cc2)NC(=O)[C@H](C(C)C)NC(=O)[C@H](Cc2c[nH]c3ccccc23)NC(=O)[C@H](CC(=O)O)NC(=O)[C@H](Cc2ccc(OCC(=O)O)cc2)NC(=O)[C@H](Cc2c[nH]cn2)NC(=O)CSC[C@@H](C(=O)NCCOCCOCC(=O)N[C@@H](CCC(=O)NCCOCCOCC(=O)N[C@@H](CCCCN)C(=O)NCCCCCCCCCCC(=O)O)C(=O)O)NC(=O)[C@H](CO)NC(=O)[C@H](C(C)C)NC(=O)[C@H](CC2CCCCC2)NC(=O)[C@H](CCN)NC(=O)[C@@H](CC(C)C)NC(=O)[C@H](C)N(C)C1=O (stereo partly drawn) [Example 2032] ({CH2CO}-HY(Carboxymethyl)DWV[Bip][Ile(3ξ)][NMeA][dL][Dab][Cha]VSC[AEEA][γGlu][AEEA]K[Aun]-OH; thioether N-14)
112	Cc1cccc(C[C@@H]2NC(=O)[C@H](CC(=O)O)NC(=O)[C@H](Cc3ccc(C(=O)O)cc3)NC(=O)[C@H](Cc3ccc(OCC(=O)O)cc3)NC(=O)CSC[C@@H](C(=O)NCC(=O)N[C@@H](CC(=O)NCCOCCOCC(=O)N[C@@H](CC(=O)NCCCCCCCCCCC(=O)O)C(=O)O)C(=O)O)NC(=O)[C@H](CO)NC(=O)[C@H](C(C)C)NC(=O)[C@H](CC(C)C)NC(=O)[C@H](CC(N)=O)NC(=O)[C@@H](CC(C)C)NC(=O)[C@H](C)N(C)C(=O)[C@H](C(C)C)NC(=O)[C@H](Cc3ccc(-c4ccccc4)cc3)NC(=O)[C@H](CC(C)C)NC2=O)c1 [Example 1025] ({CH2CO}-Y(Carboxymethyl)[Phe(4-COOH)]D[Phe(3-Me)]L[Bip]V[NMeA][dL]NLVSCG[βAsp][AEEA][βAsp][Aun]-OH; thioether N-14)

Same assay, conditions: PE-labeled PD-L1-Ig 20 nM final, Jurkat-hPD-1 cells; read-out: Jurkat HPD1 PDL1 IC50

IC50 [nM]	Compound
350	CC(=O)NCCCC[C@@H]1NC(=O)[C@H](C(C)(C)O)NC(=O)[C@H](CC2CCCCC2)NC(=O)[C@H](CCN)NC(=O)[C@@H](CC(C)C)NC(=O)[C@H](C)N(C)C(=O)[C@H](CCC(N)=O)NC(=O)[C@H](Cc2ccc(-c3ccccc3)cc2)NC(=O)[C@H](Cc2ccc(C(=O)O)cc2)NC(=O)[C@H](Cc2cccc(C(F)(F)F)c2)NC(=O)[C@H](CC(=O)O)NC(=O)[C@H](Cc2ccc(OCC(=O)O)cc2)NC(=O)[C@H](Cc2ccc(C(F)(F)F)cc2)NC(=O)CSC[C@@H](C(=O)N[C@@H](CCN)C(=O)NCCOCCOCC(=O)NCCOCCOCC(=O)NCCCCCCCCCCCCCCC(=O)O)NC1=O [Example 2610] ({CH2CO}-[Phe(4-CF3)]Y(Carboxymethyl)D[Phe(3-CF3)][Phe(4-COOH)][Bip]Q[NMeA][dL][Dab][Cha][Val(3-OH)]K(Ac)C[Dab][AEEA][AEEA]-{NH(CH2)14COOH}; thioether N-14)
72	CC(=O)NCCCC[C@@H]1NC(=O)[C@H](C(C)(C)O)NC(=O)[C@H](CC2CCCCC2)NC(=O)[C@H](CCN)NC(=O)[C@@H](CC(C)C)NC(=O)[C@H](C)N(C)C(=O)[C@H](CCC(N)=O)NC(=O)[C@H](Cc2ccc(-c3ccccc3)cc2)NC(=O)[C@H](Cc2ccc(C(=O)O)cc2)NC(=O)[C@H](Cc2cccc(C)c2)NC(=O)[C@H](CC(=O)O)NC(=O)[C@H](Cc2ccc(OCC(=O)O)cc2)NC(=O)[C@H](Cc2ccc(OC(F)(F)F)cc2)NC(=O)CSC[C@@H](C(=O)N[C@@H](CCN)C(=O)NCCCCCCCCCCCCC(=O)O)NC1=O [Example 2620] ({CH2CO}-Y(CF3)Y(Carboxymethyl)D[Phe(3-Me)][Phe(4-COOH)][Bip]Q[NMeA][dL][Dab][Cha][Val(3-OH)]K(Ac)C[Dab]-{NH(CH2)12COOH}; thioether N-14)
14.4	Cc1cccc(C[C@@H]2NC(=O)[C@H](CC(=O)O)NC(=O)[C@H](Cc3ccc(OCC(=O)O)cc3)NC(=O)[C@H](Cc3ccsc3)NC(=O)CSC[C@@H](C(=O)N[C@@H](CCN)C(=O)NCCCCCCCCCCC(=O)O)NC(=O)[C@H](CO)NC(=O)[C@H](C(C)(C)O)NC(=O)[C@H](CC3CCCCC3)NC(=O)[C@H](CCN)NC(=O)[C@@H](CC(C)C)NC(=O)[C@H](C)N(C)C(=O)[C@H](Cc3ccc(C(=O)O)cc3)NC(=O)[C@H](Cc3ccc(-c4ccccc4)cc3)NC(=O)[C@H](Cc3ccc(C(=O)O)cc3)NC2=O)c1 [Example 2513] ({CH2CO}-[3Thi]Y(Carboxymethyl)D[Phe(3-Me)][Phe(4-COOH)][Bip][Phe(4-COOH)][NMeA][dL][Dab][Cha][Val(3-OH)]SC[Dab][Aun]-OH; thioether N-14)
